What follows are compounds tested against T1, human TRPM8 (Homo sapiens, UniProt Q7Z2W7) (assay: Menthol-induced Ca2+ influx in HEK293 cells stably expressing human TRPM8). Conditions: 30 microM menthol-induced Ca2+ influx, read-out: IC50 against TRPM8.
T1 construct: expressed in transfected cells; host or cells: HEK293
Assay type: cell-based
Procedure, shortened: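 IC50 values were fitted from 11-point dose-response data averaged over duplicate wells. Compound was added for 5 min to Fluo4-loaded HEK293 cells carrying stable human TRPM8, in HBSS/HEPES pH 7.4 with probenecid. Intracellular Ca2+ change after 30 microM menthol addition was then imaged on FDSS.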

T1 sequence (Q7Z2W7 whole entry): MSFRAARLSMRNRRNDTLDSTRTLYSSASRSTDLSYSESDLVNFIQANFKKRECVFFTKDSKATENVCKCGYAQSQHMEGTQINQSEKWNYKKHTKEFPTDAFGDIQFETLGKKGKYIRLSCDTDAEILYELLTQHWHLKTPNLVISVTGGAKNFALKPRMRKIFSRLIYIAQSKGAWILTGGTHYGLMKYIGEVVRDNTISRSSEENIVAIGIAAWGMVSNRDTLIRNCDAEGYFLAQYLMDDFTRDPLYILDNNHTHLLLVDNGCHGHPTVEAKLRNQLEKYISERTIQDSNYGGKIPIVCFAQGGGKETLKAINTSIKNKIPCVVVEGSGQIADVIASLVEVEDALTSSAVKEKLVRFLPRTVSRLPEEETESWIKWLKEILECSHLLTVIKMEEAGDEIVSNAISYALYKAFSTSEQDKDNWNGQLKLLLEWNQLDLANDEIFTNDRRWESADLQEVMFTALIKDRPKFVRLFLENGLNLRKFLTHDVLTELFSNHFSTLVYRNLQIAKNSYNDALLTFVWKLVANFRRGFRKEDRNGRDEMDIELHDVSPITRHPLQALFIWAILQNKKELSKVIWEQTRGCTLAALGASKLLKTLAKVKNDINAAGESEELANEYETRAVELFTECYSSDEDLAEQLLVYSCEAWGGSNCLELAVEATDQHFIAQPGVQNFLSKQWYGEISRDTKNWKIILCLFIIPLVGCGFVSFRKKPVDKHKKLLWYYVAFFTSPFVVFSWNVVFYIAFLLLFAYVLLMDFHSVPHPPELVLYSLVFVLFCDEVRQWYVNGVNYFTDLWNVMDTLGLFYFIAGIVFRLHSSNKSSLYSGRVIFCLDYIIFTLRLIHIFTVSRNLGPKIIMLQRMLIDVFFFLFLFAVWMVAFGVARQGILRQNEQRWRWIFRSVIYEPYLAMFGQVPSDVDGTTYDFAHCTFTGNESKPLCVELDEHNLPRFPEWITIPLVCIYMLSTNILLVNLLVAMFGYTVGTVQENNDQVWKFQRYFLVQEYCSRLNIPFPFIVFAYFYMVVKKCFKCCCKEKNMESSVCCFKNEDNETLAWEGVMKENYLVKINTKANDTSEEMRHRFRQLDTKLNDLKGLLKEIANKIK

IC50	SMILES
< 100 nM	COc1ccncc1-c1sc(C(=O)CN2C(=O)NC3(CCC(F)(F)CC3)C2=O)cc1C [Example 14-16]
< 100 nM	Cc1cc(C(=O)CN2C(=O)NC3(CCC(F)(F)CC3)C2=O)sc1-c1cncc(F)c1 [Example 14-17]
< 500 nM	Cc1cc(C(=O)CN2C(=O)NC3(CCC(F)(F)CC3)C2=O)sc1-c1cccc(C(N)=O)c1 [Example 14-18]
< 500 nM	Cc1cc(C(=O)CN2C(=O)NC3(CCC(F)(F)CC3)C2=O)sc1-c1cccnc1CO [Example 14-19]
< 500 nM	Cc1cc(C(=O)CN2C(=O)NC3(CCC(F)(F)CC3)C2=O)sc1-c1cccc2cccnc12 [Example 14-20]
< 500 nM	Cc1cc(C(=O)CN2C(=O)NC3(CCC(F)(F)CC3)C2=O)sc1-c1cccc(CO)c1 [Example 14-21]
< 100 nM	Cc1sc(C(=O)CN2C(=O)NC3(CCC(F)(F)CC3)C2=O)c(C)c1-c1ccccc1C#N [Example 15-1]
< 100 nM	Cc1sc(C(=O)CN2C(=O)NC3(CCC(F)(F)CC3)C2=O)c(C)c1-c1cccnc1 [Example 15-2]
< 100 nM	Cc1sc(C(=O)CN2C(=O)NC3(CCC(F)(F)CC3)C2=O)c(C)c1-c1cccc(C#N)c1 [Example 15-3]
< 100 nM	Cc1ccncc1-c1c(C)sc(C(=O)CN2C(=O)NC3(CCC(F)(F)CC3)C2=O)c1C [Example 15-4]
< 100 nM	Cc1sc(C(=O)CN2C(=O)NC3(CCC(F)(F)CC3)C2=O)c(C)c1-c1cncnc1 [Example 15-5]
< 10 nM	Cc1sc(C(=O)CN2C(=O)NC3(CCC(F)(F)CC3)C2=O)c(C)c1-c1cncc(F)c1 [Example 15-6]
< 100 nM	Cc1sc(C(=O)CN2C(=O)NC3(CCC(F)(F)CC3)C2=O)c(C)c1-c1cccc(C(N)=O)c1 [Example 15-7]
< 500 nM	Cc1sc(C(=O)CN2C(=O)NC3(CCC(F)(F)CC3)C2=O)c(C)c1-c1ccccc1 [Example 15-8]
< 500 nM	Cc1ccccc1-c1c(C)sc(C(=O)CN2C(=O)NC3(CCC(F)(F)CC3)C2=O)c1C [Example 15-9]
< 500 nM	Cc1sc(C(=O)CN2C(=O)NC3(CCC(F)(F)CC3)C2=O)c(C)c1-c1cncc(C(N)=O)c1 [Example 15-10]
< 500 nM	Cc1cccc(-c2c(C)sc(C(=O)CN3C(=O)NC4(CCC(F)(F)CC4)C3=O)c2C)c1 [Example 15-11]
< 500 nM	Cc1sc(C(=O)CN2C(=O)NC3(CCC(F)(F)CC3)C2=O)c(C)c1-c1cccc(CO)c1 [Example 15-12]
< 100 nM	Cn1c(C(=O)CN2C(=O)NC3(CCC(F)(F)CC3)C2=O)ccc1-c1cccc(C#N)c1 [Example 16-1]
< 100 nM	Cc1ccncc1-c1ccc(C(=O)CN2C(=O)NC3(CCC(F)(F)CC3)C2=O)n1C [Example 16-2]
< 100 nM	Cn1c(C(=O)CN2C(=O)NC3(CCC(F)(F)CC3)C2=O)ccc1-c1cccnc1 [Example 16-3]
< 10 nM	Cc1cc(C(=O)CN2C(=O)NC3(CCC(F)(F)CC3)C2=O)n(C)c1-c1cccc(C#N)c1 [Example 16-4]
< 100 nM	Cc1cc(C(=O)CN2C(=O)NC3(CCC(F)(F)CC3)C2=O)n(C)c1-c1cccc(F)c1 [Example 16-5]
< 100 nM	Cc1cc(C(=O)CN2C(=O)NC3(CCC(F)(F)CC3)C2=O)n(C)c1-c1cccc(C(N)=O)c1 [Example 16-6]
< 100 nM	Cc1cc(C(=O)CN2C(=O)NC3(CCC(F)(F)CC3)C2=O)n(C)c1-c1ccccc1C#N [Example 16-7]
< 100 nM	Cc1cc(C(=O)CN2C(=O)NC3(CCC(F)(F)CC3)C2=O)n(C)c1-c1ccccc1CO [Example 16-8]
< 100 nM	Cc1cc(C(=O)CN2C(=O)NC3(CCC(F)(F)CC3)C2=O)n(C)c1-c1cc(F)cc(F)c1 [Example 16-9]
< 100 nM	Cc1ccncc1-c1c(C)cc(C(=O)CN2C(=O)NC3(CCC(F)(F)CC3)C2=O)n1C [Example 16-10]
< 100 nM	Cc1cc(C(=O)CN2C(=O)NC3(CCC(F)(F)CC3)C2=O)n(C)c1-c1cccnc1 [Example 16-11]
< 100 nM	Cc1cc(C(=O)CN2C(=O)NC3(CCC(F)(F)CC3)C2=O)n(C)c1-c1cccc(Cl)c1 [Example 16-12]
